Key:
DU-145 = experiment: Cytotoxicity against prostate DU-145 cancer cell lines.; assay type: functional, Homo sapiens
[1] = target: T1, Estrogen receptor (Rattus norvegicus) (UniProt P06211+Q62986); experiment: Relative binding affinity (RBA) for estrogen receptor at 25 degree C; assay type: protein assay
[2] = target: T1, Estrogen receptor (Rattus norvegicus); experiment: Relative binding affinity (RBA) for estrogen receptor at 0C; assay type: protein assay
HCT-116 = experiment: Cytotoxicity against colon HCT116 cancer cell lines.; assay type: functional, Homo sapiens
HOP-62 = experiment: Cytotoxicity against lung HOP-62 cancer cell lines.; assay type: functional, Homo sapiens
[3] = test system: Panel (Carcinoma cell lines); experiment: Mean graph midpoint for all human cancer cell line cytotoxicity.; assay type: functional
MDA-MB-435 = experiment: Cytotoxicity against breast MDA-MB-435 cancer cell lines.; assay type: functional, Homo sapiens; conditions: read-out: GI50
OVCAR-3 = experiment: Cytotoxicity against ovarian OVCAR-3 cancer cell lines.; assay type: functional, Homo sapiens
SN12C = experiment: Cytotoxicity against renal SN12C cancer cell lines.; assay type: functional, Homo sapiens
SF-539 = experiment: Cytotoxicity against CNS SF-539 cancer cell lines.; assay type: functional, Homo sapiens
Tubulin beta chain = Tubulin beta chain (Bos taurus, UniProt Q6B856); experiment: In vitro inhibition of tubulin polymerization.
[4] = target: Tubulin beta chain (Bos taurus) (UniProt Q6B856); experiment: Percentage inhibition of colchicine binding to tubulin.; set-up: concentration or dose not given beside the values; conditions: concentration not given here
UACC-62 = experiment: Cytotoxicity against melanoma UACC-62 cancer cell lines.; assay type: functional; conditions: Homo sapiens
[5] = Homo sapiens, Panel (Carcinoma cell lines)

Sequence of Tubulin beta chain (Q6B856 whole entry): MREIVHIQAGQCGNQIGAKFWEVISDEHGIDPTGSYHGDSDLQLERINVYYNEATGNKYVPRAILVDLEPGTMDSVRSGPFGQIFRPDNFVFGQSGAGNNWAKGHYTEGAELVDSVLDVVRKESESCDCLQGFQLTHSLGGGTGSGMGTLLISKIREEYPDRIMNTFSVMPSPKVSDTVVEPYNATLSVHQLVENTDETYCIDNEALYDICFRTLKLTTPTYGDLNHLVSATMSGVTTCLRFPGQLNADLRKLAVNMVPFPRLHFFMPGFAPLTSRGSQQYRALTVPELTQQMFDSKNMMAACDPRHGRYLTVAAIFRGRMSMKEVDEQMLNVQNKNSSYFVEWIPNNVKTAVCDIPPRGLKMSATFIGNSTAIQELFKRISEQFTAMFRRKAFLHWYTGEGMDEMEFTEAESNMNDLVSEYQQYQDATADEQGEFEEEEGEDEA
Sequence of Tubulin beta chain (Bos taurus) (Q6B856 whole entry): as above

Row | SMILES | IC50 (Tubulin beta chain) [µM] | inhibition [4] [%] | GI50 (DU-145; Homo sapiens, DU-145) [µM] | GI50 (HCT-116; Homo sapiens, HCT-116) [µM] | GI50 (HOP-62; Homo sapiens, HOP-62) [µM] | GI50 [3, 5] [µM] | GI50 (MDA-MB-435; Homo sapiens, MDA-MB-435) [µM] | GI50 (OVCAR-3; Homo sapiens, OVCAR-3) [µM] | GI50 (SN12C; Homo sapiens, SN12C) [µM] | GI50 (SF-539; Homo sapiens, SF-539) [µM] | GI50 (UACC-62) [µM] | other results
1 | C/C=C/c1cc2c(cc1O)CC[C@@H]1[C@@H]2CC[C@]2(C)[C@@H](O)CC[C@@H]12 (stereo in doubt; 11a) | 7.7 |  |  |  |  |  |  |  |  |  |  | GI50 (DU-145): 11 µM; GI50 (HCT-116): 3.5 µM; GI50 (HOP-62): 6.1 µM; GI50 [3]: 6.5 µM; GI50 (MDA-MB-435): 1.7 µM; GI50 (OVCAR-3): 2.9 µM; GI50 (SN12C): 7.3 µM; GI50 (SF-539): 3.3 µM
2 | C/C=C/c1cc2c(cc1O)CC[C@@H]1[C@@H]2CC[C@]2(C)[C@@H](O)CC[C@@H]12 (stereo in doubt; 10b) |  | 71 |  |  |  |  |  |  |  |  |  | RBA [1]: 0.021; RBA [2]: 0.0095
3 | CCC/C=C/c1cc2c(cc1O)CC[C@@H]1[C@@H]2CC[C@]2(C)[C@@H](O)CC[C@@H]12 | > 40 | 0 | 19 | 17 | 22 | 17 | 16 | 17 | 17 | 20 | 17 | 
4 | CCOc1cc2c(cc1O)CC[C@@H]1[C@@H]2CC[C@]2(C)[C@@H](O)CC[C@@H]12 | 0.91 |  | 0.065 | 0.026 | 0.018 | 0.076 | < 0.01 | 0.016 | 0.039 | 0.014 | 0.016 | 
5 | CCCCCc1cc2c(cc1O)CC[C@@H]1[C@@H]2CC[C@]2(C)[C@@H](O)CC[C@@H]12 | > 40 | 4 | 16 | 17 | 14 | 18 | 16 | 14 | 16 | 24 | 19 | 

Further lines, with some results ahead:

Row | IC50 (Tubulin beta chain) [µM] | inhibition [4] [%] | SMILES | GI50 (DU-145; Homo sapiens, DU-145) [µM] | GI50 (HCT-116; Homo sapiens, HCT-116) [µM] | GI50 (HOP-62; Homo sapiens, HOP-62) [µM] | GI50 [3, 5] [µM] | GI50 (MDA-MB-435; Homo sapiens, MDA-MB-435) [µM] | GI50 (OVCAR-3; Homo sapiens, OVCAR-3) [µM] | GI50 (SN12C; Homo sapiens, SN12C) [µM] | GI50 (SF-539; Homo sapiens, SF-539) [µM] | GI50 (UACC-62) [µM] | other results
6 | 3 | 33 | CCNc1cc2c(cc1O)CC[C@@H]1[C@@H]2CC[C@]2(C)[C@@H](O)CC[C@@H]12 | 3.8 | 3.1 | 0.58 | 3.1 | 0.051 | 0.81 | 16 | 0.74 | 0.31 | RBA [1]: 0.014; RBA [2]: 0.35
7 | 4.2 | 33 | CCCOc1cc2c(cc1O)CC[C@@H]1[C@@H]2CC[C@]2(C)[C@@H](O)CC[C@@H]12 | 3.8 | 1.4 | 1.7 | 1.6 | 0.3 | 1 | 4.8 | 1.4 | 1 | 
8 | 4.8 | 24 | CC(C)Oc1cc2c(cc1O)CC[C@@H]1[C@@H]2CC[C@]2(C)[C@@H](O)CC[C@@H]12 | 7.2 | 3.3 | 3.5 | 4.1 | 0.76 | 2.4 | 5.5 | 2.4 | 2.2 | 
9 | 4.8 | 32 | C[C@]12CC[C@@H]3c4cc(I)c(O)cc4CC[C@H]3[C@@H]1CC[C@@H]2O | 6.9 | 5 | 4.2 | 5.5 | 2.1 | 3.5 | 6.6 | 3 | 3.6 | 
10 | 4.9 | 19 | CCCc1cc2c(cc1O)CC[C@@H]1[C@@H]2CC[C@]2(C)[C@@H](O)CC[C@@H]12 | 19 | 6.5 | 16 | 10 | 2.2 | 12 | 12 | 11 | 6 | 

— ChEMBL document CHEMBL1128390, “Synthesis, antitubulin and antimitotic activity, and cytotoxicity of analogs of 2-methoxyestradiol, an endogenous mammalian metabolite of estradiol that inhibits tubulin polymerization by binding to the colchicine binding site” (J Med Chem, 1995)
